From patent publication US6372297B1, “Wood preservative oxathiazines” (Uniroyal Chemical Company, Inc., priority 1993, dated 2002)
Read-outs that look alike come from different tables or passages of the source.

Legend:
Aspergillus niger = test: Control of molds and blue stain fungi in stick test (beech sticks); conditions: minimum concentration producing a score less than or equal to 1; dosages 250-5000 ppm
Procedure: (§1) The compounds shown in Table 1 were dissolved in 50% ethanol and a dilution series was made using the same solvent. In 25 ml of each dilution, one oven-dried beech stick (73×18×2 mm) was drenched until saturated.
(§2) Test dosages were 50, 100, 250, 500, and 1000 ppm for blue stain fungi which were Aureobasidium pullulans and Sclerophoma pithyophila. Test dosages for the molds used (Trichoderma viride, Aspergillus niger) were 250, 500, 1000, 2500, and 5000 ppm.
(§3) After three hours the test solution was poured off and each stick was allowed to dry in a sterile laminar air flow. In each Petri dish one stick was placed on malt agar previously seeded with inoculum. Two drops of fungal or spore suspension were pipetted on the upper surface of the stick. The Petri dishes were then incubated at 22° C. and 90% relative humidity. The treated sticks were evaluated after sufficient growth of the fungus on the untreated control sticks. The following score system was used to rate the effectiveness of the compounds:
(§4) 0=stick free of fungal growth
(§5) 1=traces of fungal growth on stick
(§6) 2=slight fungal growth (5 to 25% of the surface covered)
(§7) 3=moderate fungal growth (25 to 50% of the surface covered)
(§8) 4=vigorous fungal growth (greater than 50% of the surface covered).
(§9) For purposes of comparison of these compounds, these values were converted to threshold ranges. The threshold value in this system is defined as the minimum concentration of a particular compound which produces a score less than or equal to 1.

Sclerophoma pithyophila = test: as above; conditions: minimum concentration producing a score less than or equal to 1; dosages 50-1000 ppm
Procedure: as §1, §2, §3, §4, §5, §6, §7, §8, §9

Aureobasidium pullulans = test: as above; conditions: minimum concentration producing a score less than or equal to 1; dosages 50-1000 ppm
Procedure: as §1, §2, §3, §4, §5, §6, §7, §8, §9

Trichoderma viride = test: as above; conditions: minimum concentration producing a score less than or equal to 1; dosages 250-5000 ppm
Procedure: as §1, §2, §3, §4, §5, §6, §7, §8, §9

[1] = tested on: molds and blue-stain fungi; test: In vitro activity against molds and blue-stain fungi, poison plate assay (MIC); assay type: cell-based; conditions: malt extract agar, complete inhibition
Method in brief: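 Poison plate format: compound diluted in sterile water and mixed into malt extract agar, then plates inoculated with each fungus. Growth inhibition scored at each concentration to give the MIC.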

[2] = tested on: blue-stain fungi and molds; test: Activity against blue-stain fungi and molds on a stick test on vermiculite (paint film); set-up: key to Surface score of wooden sticks treated with paint formulation, C. cladosporioides / Surface score of wooden sticks treated with paint formulation, P. purpurogenum / Surface score of wooden sticks treated with paint formulation, P. violacea / Surface score of wooden sticks treated with paint formulation, R rubra (y) / Surface score of wooden sticks treated with paint formulation, S. chartarum / Surface score of wooden sticks treated with paint formulation, A. versicolor / Surface score of wooden sticks treated with paint formulation, A. pullulans: 0: No growth; Trace of growth of up to 1% coverage of the test inoculated area; 2: Growth covering between 1 and 10% of the inoculated test area; Growth covering between 10 and 30% of the inoculated test area; 4: Growth covering between 30 and 70% of the inoculated test area; 5: Growth covering more than 70t of the inoculated test area; conditions: 12 weeks on vermiculite; for Surface score of wooden sticks treated with paint formulation, R rubra (y): R rubra (yeast)
Method in brief: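 Painted, γ-sterilised beech sticks dipped in spore suspensions of each fungus, then held on moist vermiculite for 12 weeks. Surface fungal growth scored visually on a 0 (none) to 5 (over 70% of inoculated area) scale.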

[3] = tested on: mixed spore suspension of blue-stain fungus and molds; test: Activity against blue-stain fungi and molds in a mold cabinet test (BS3900: Part G6); set-up: key: 0: No growth; Trace of growth of up to 1% coverage of the test inoculated area; 2: Growth covering between 1 and 10% of the inoculated test area; Growth covering between 10 and 30% of the inoculated test area; 4: Growth covering between 30 and 70% of the inoculated test area; 5: Growth covering more than 70t of the inoculated test area
Method in brief: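 Painted Scots pine sticks, sterilized by irradiation, were treated with compound solutions, dipped in mixed spore suspension and held in a mold chamber for 12 weeks. Surface growth scored 0 (none) to 5 (>70% of inoculated area covered).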

| Compound | Threshold value in stick test, A[…] (Aspergillus niger) | Threshold value in stick test, SCLEROPHOMA PYTHIOPHILA (Sclerophoma pithyophila) | Threshold value in stick test, AUREOBASIDIUM PULLULANS (Aureobasidium pullulans) | Threshold value in stick test, TRICHODERMA VIRIDE (Trichoderma viride) | MIC (ppm) against A. amstelodami [1] [ppm] | MIC (ppm) against A. versicolor [1] [ppm] | MIC (ppm) against C. pilifera [1] [ppm] | MIC (ppm) against F. solani [1] [ppm] | MIC (ppm) against P. purpurogenum [1] [ppm] | MIC (ppm) against P. variotii [1] [ppm] | MIC (ppm) against P. violacea [1] [ppm] | MIC (ppm) against S. atra [1] [ppm] | MIC (ppm) against S. entoxylina [1] [ppm] | MIC (ppm) against U. atrum [1] [ppm] | MIC (ppm) against A. niger ([1]; A. niger) [ppm] | MIC (ppm) against A. pullulans ([1]; A. pullulans) [ppm] | MIC (ppm) against C. cladosporioides ([1]; C. cladosporioides) [ppm] | MIC (ppm) against G. candidum ([1]; G. candidum) [ppm] | MIC (ppm) against T. viride ([1]; T. viride) [ppm] | other results |
| --- | --- | --- | --- | --- | --- | --- | --- | --- | --- | --- | --- | --- | --- | --- | --- | --- | --- | --- | --- | --- |
| C[S+]1CCON=C1c1ccc(Cl)cc1 (stereo not drawn) [Compound 1] | 1000-2500 ppm | 100-250 ppm | >1000 ppm | 2500-5000 ppm | – | – | – | – | – | – | – | – | – | – | – | – | – | – | – | – |
| C[S+]1CCON=C1c1cc(Cl)cc(Cl)c1 (stereo not drawn) [Compound 19] | 250-500 ppm | 250-500 ppm | 250-500 ppm | <250 ppm | 25 | 25 | 10 | >25 | 25 | 25 | >25 | 25 | 25 | >25 | – | – | – | – | – | MIC ([1]; Aspergillus niger, A. niger, read-out: MIC (ppm) against A. niger): 2.5 µg/mL; MIC ([1]; Aureobasidium pullulans, A. pullulans, read-out: MIC (ppm) against A. pullulans): 25 µg/mL; MIC ([1]; Cladosporium cladosporioides, C. cladosporioides, read-out: MIC (ppm) against C. cladosporioides): 25 µg/mL; MIC ([1]; Geotrichum candidum, G. candidum, read-out: MIC (ppm) against G. candidum): > 25 µg/mL; MIC ([1]; Trichoderma viride, T. viride, read-out: MIC (ppm) against T. viride): 25 µg/mL |
| [O-][S+]1CCON=C1c1ccc(Cl)c(Cl)c1 (stereo not drawn) [Compound 4] | 250-500 ppm | 50-100 ppm | 500-1000 ppm | 500-1000 ppm | 10 | 5 | 5 | 10 | 10 | 10 | 25 | 2.5 | 10 | 25 | 2.5 | 10 | 10 | 25 | 25 | – |
| C[S+]1CCON=C1c1ccc(C(F)(F)F)cc1 (stereo not drawn) [Compound 25] | <250 ppm | 50-100 ppm | 250-500 ppm | <250 ppm | – | – | – | – | – | – | – | – | – | – | – | – | – | – | – | – |
| O=S1(=O)CCON=C1c1cccs1 [Compound 34] | – | – | – | – | 5 | 5 | 2.5 | 25 | 10 | 25 | 25 | 5 | 5 | 25 | 5 | 25 | 25 | 25 | >25 | Surface score of wooden sticks treated with paint formulation, A. pullulans ([2]; 0.15% a.i. in paint): 0; Surface score of wooden sticks treated with paint formulation, A. pullulans ([2]; 0.3% a.i. in paint): 0; Surface score of wooden sticks treated with paint formulation, A. versicolor ([2]; 0.15% a.i. in paint): 0; Surface score of wooden sticks treated with paint formulation, A. versicolor ([2]; 0.3% a.i. in paint): 0; Surface score of wooden sticks treated with paint formulation, C. cladosporioides ([2]; 0.15% a.i. in paint): 0; Surface score of wooden sticks treated with paint formulation, C. cladosporioides ([2]; 0.3% a.i. in paint): 0; Surface score of wooden sticks treated with paint formulation, P. purpurogenum ([2]; 0.15% a.i. in paint): 4 (Growth covering between 30 and 70% of the inoculated test area); Surface score of wooden sticks treated with paint formulation, P. purpurogenum ([2]; 0.3% a.i. in paint): 1 (Trace of growth of up to 1% coverage of the test inoculated area); Surface score of wooden sticks treated with paint formulation, P. violacea ([2]; 0.15% a.i. in paint): 4 (Growth covering between 30 and 70% of the inoculated test area); Surface score of wooden sticks treated with paint formulation, P. violacea ([2]; 0.3% a.i. in paint): 1 (Trace of growth of up to 1% coverage of the test inoculated area); Surface score of wooden sticks treated with paint formulation, R rubra (y) ([2]; 0.15% a.i. in paint): 3 (Growth covering between 10 and 30% of the inoculated test area); Surface score of wooden sticks treated with paint formulation, R rubra (y) ([2]; 0.3% a.i. in paint): 0; Surface score of wooden sticks treated with paint formulation, S. chartarum ([2]; 0.15% a.i. in paint): 1 (Trace of growth of up to 1% coverage of the test inoculated area); Surface score of wooden sticks treated with paint formulation, S. chartarum ([2]; 0.3% a.i. in paint): 0; Surface score of wooden sticks treated with paint formulation, U. atrum ([2]; 0.15% a.i. in paint): 3 (Growth covering between 10 and 30% of the inoculated test area); Surface score of wooden sticks treated with paint formulation, U. atrum ([2]; 0.3% a.i. in paint): 1 (Trace of growth of up to 1% coverage of the test inoculated area); Surface score in a paint formulation in a mold cabinet test, 6 weeks ([3]; 0.15% in water-based paint): 0.5; Surface score in a paint formulation in a mold cabinet test, 12 weeks ([3]; 0.15% in water-based paint): 1.5; Surface score in a paint formulation in a mold cabinet test, 6 weeks ([3]; 0.3% in water-based paint): 0; Surface score in a paint formulation in a mold cabinet test, 12 weeks ([3]; 0.3% in water-based paint): 1.0 |
